Strand notation (5' to 3'): a small letter for the sugar, then the base; units joined by * are phosphorothioate-linked, units joined directly phosphodiester-linked; [ ] holds rarer units or linkages, { } end groups; capitals alone tell only the bases. [5BrU] = 5-bromo-uracil base (5-bromo-2'-deoxyuridine on d sugar); d = 2'-deoxy (DNA); m = 2'-O-methyl; r = 2'-OH (RNA)
How the values were obtained:
Huntingtin mRNA [1] = assay: In vivo down-modulation of endogenous HD mRNA by continuous intrastriatal infusion in rats; set-up: species or system rat; details: 1.3 mg over 7 days (0.5 uL/hr at 1.1 mM), ipsilateral striatum
Procedure: In rats, 1.3 mg AL-DP-1997 or AL-DP-1998, or phosphate-buffered saline (PBS, vehicle control) was administered by continuous intrastriatal infusion over 7 days. Male Sprague-Dawley rats, approximately 250-300 g body weight, received stereotaxic implantation of 30-gauge infusion cannulae (Plastics One, Roanok, Va.) such that unilateral injections were targeted to the center of the striatum (anteroposterior+0.7 mm, mediolateral+3.0 mm, relative to bregma; dorsoventral 5 mm, relative to skull surface). Mini-osmotic pumps (model 1007D) were primed overnight according to the manufacturer's specifications, implanted subcutaneously, and connected via catheters, to deliver (4 rats per treatment group) PBS, 1.1 mM AL-DP-1997 or 1.1 mM AL-DP-1998 at 0.5 uL/hr over 7 days. At the end of the 7 day infusion period, animals were sacrificed, brains were removed, and ipsilateral striata encompassing the infusion site were flash frozen. Tissue samples of about 5-30 mg each were homogenized by sonication (BANDELIN electronic GmbH & Co. KG, Berlin, Germany) in Tissue and Cell Lysis solution (Epicentre, Madison, Wis.) containing 84 μg/ml Proteinase K (Epicentre, Madison, Wis.). Lysates were then stored at −80° C. For carrying out the bDNA assay, frozen lysates were thawed at room temperature, and Huntingtin and GAPDH mRNA were quantified using the Quantigene Explore Kit according to the manufacturer's instructions. For each tissue sample, the ratio of Huntingtin/GAPDH (normalized Huntingtin mRNA level) was calculated as an average of four determinations. These ratios were then averaged to obtain a group (treatment) average. The unconjugated dsRNA, AL-DP-1997, reduced the normalized Huntingtin mRNA level by 33%, relative to the PBS control group, whereas the cholesterol-conjugated dsRNA, AL-DP-1998, reduced the normalized Huntingtin mRNA level by 26%, relative to the PBS control group. Both reductions were statistically significant (p<0.05, ANOVA with Tukey post-hoc analysis).
With an identical experimental paradigm, AL-DP-5997 and AL-DP-6000 were also found to be effective in vivo in down-modulating HD mRNA levels after intrastriatal infusion with 1.3 mg over 7 days (0.5 uL/hr at 1.1 mM) in rats. AL-DP-5997 and AL-DP-6000 reduced the normalized Huntingtin mRNA levels in striatal tissue by 34% and 36%, respectively, relative to the PBS control group. In addition, AL-DP-5997 and AL-DP-6000 reduced the normalized Huntingtin mRNA levels in cortical tissue by 22% and 26% respectively.

Huntingtin mRNA [2] = assay: In vivo down-modulation of endogenous HD mRNA by intrastriatal infusion in mice; set-up: species or system mouse; details: Balb/c mice, 75 ug by 20 minute intrastriatal infusion, ipsilateral striatum, approximately 72 hours after injection
Procedure: In mice, 75 ug AL-DP-1998, or phosphate-buffered saline (PBS, vehicle control) was administered by a 20 minute intrastriatal infusion. Male Balb/c mice, approximately 20-25 g body weight, received unilateral injections of test article that were targeted to the striatum (anteroposterior+0.5 mm, mediolateral+2.0 mm, relative to bregma; dorsoventral 3.5 mm, relative to skull surface). Test articles (1.1 mM) were injected (4 animals per test article) at 0.25 uL/min. using pre-filled, pump-regulated Hamilton micro-syringes connected to a 33 gauge needle. Approximately 72 hours following the injection, animals were sacrificed, brains were removed, and ipsilateral striata encompassing the infusion site were dissected and flash frozen. As described above for rat tissue samples, mouse tissue samples were lysed, and Huntingtin and GAPDH mRNA levels quantified. For each tissue sample, the ratio of Huntingtin/GAPDH (normalized Huntingtin mRNA level) was calculated as an average of four determinations. These ratios were then averaged to obtain a group (treatment) average. The cholesterol-conjugated dsRNA, AL-DP-1998, reduced the normalized Huntingtin mRNA level by 33%, relative to the PBS control group, which was statistically significant (p<0.05, ANOVA with Tukey post-hoc analysis).

For “AL-DP-1997: unconjugated dsRNA based on AL-DP-5997, antisense 3'-end TT replaced with 5-bromo-2'-deoxyuridine; SEQ ID NO: 886/887 (chain 1 rGmUmCrAmCrArArArGrArAmCmCrGmUrGmCrArGdT*dT; chain 2 rCrUrGmCrArCrGrGrUrUrCrUrUrUrGrUrGrArCd[5BrU]*d[5BrU])”, the “reduction of normalized Huntingtin mRNA level in striatal tissue relative to the PBS control group” value (Huntingtin mRNA [1]) was 33%.

In the case of “AL-DP-1998: cholesterol-conjugated dsRNA based on AL-DP-5997, antisense 3'-end TT replaced with 5-bromo-2'-deoxyuridine; SEQ ID NO: 888/889 (chain 1 GUCACAAAGAACCGUGCAGTT; chain 2 CUGCACGGUUCUUUGUGACNN; chemistry not fully specified)”, the “reduction of normalized Huntingtin mRNA level relative to the PBS control group” value (Huntingtin mRNA [2]) is reported as 33% and the “reduction of normalized Huntingtin mRNA level in striatal tissue relative to the PBS control group” value (Huntingtin mRNA [1]) is reported as 26%.

— patent publication US8314075B2, “Compositions and methods for inhibiting expression of huntingtin gene” (Alynylam Pharmaceuticals, Inc., priority 2005, dated 2012)
